Where two headings read alike, the source gives them in different places. Starred links: 1 amine or outer side, 2 acyl side, 3 side chain; linkers in the order of their positions; H or OH if unused. Positions of bridges follow the written chain, without caps; N, C: chain ends. Non-standard residues stand in square brackets, D forms with d. Residues, ends and D or L forms follow the SMILES beside them. *: point of attachment. X1 = CN(CCCN1CCN(*)CC1)c1ccc2nccc(C(=O)NCC(=O)N3CC(F)(F)C[C@H]3C#N)c2c1; DOTA = O=C(O)CN1CCN(CC(=O)O)CCN(CC(=O)*)CCN(CC(=O)O)CC1; dPhe(4-NHCONH2) = NC(=O)Nc1ccc(C[C@@H](N)C(=O)O)cc1; Phe(4-Cl) = N[C@@H](Cc1ccc(Cl)cc1)C(=O)O; Suc = O=C(CCC(=O)[*:2])[*:1]; AEEEA = NCCOCCOCCOCC(=O)O

These results are taken from PMC10924156, “Design, Preclinical Evaluation, and Clinical Translation of ^68Ga-FAPI-LM3, a Heterobivalent Molecule for PET Imaging of Nasopharyngeal Carcinoma” (Journal of Nuclear Medicine, 2024).

Data set [1] addresses T1, human FAP (Homo sapiens, UniProt Q12884).
T1 construct: expressed in transfected cells
T1 sequence (Q12884 1-760): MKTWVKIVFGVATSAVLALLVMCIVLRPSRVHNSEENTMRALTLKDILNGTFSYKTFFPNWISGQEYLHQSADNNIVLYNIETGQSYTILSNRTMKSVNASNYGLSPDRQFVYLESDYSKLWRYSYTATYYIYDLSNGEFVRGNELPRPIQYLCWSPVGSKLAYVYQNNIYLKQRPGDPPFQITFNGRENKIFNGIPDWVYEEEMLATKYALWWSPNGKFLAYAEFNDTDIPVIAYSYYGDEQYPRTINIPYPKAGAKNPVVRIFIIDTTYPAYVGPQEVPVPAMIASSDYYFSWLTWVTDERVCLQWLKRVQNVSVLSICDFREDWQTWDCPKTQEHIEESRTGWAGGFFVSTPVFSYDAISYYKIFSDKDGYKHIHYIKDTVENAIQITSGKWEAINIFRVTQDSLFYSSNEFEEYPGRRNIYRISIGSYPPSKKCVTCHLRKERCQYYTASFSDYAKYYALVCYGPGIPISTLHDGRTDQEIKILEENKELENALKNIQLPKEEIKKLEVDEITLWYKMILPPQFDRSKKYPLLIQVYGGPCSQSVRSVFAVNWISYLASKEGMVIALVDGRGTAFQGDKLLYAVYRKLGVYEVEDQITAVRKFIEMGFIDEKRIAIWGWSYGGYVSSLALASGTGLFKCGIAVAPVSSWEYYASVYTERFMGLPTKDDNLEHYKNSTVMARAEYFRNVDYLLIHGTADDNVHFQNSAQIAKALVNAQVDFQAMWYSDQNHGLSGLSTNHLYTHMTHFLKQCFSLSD
The data set can be described thus: FAP radioligand binding assay on HT-1080-FAP cells. The note with it: read-out: half-maximal inhibitory concentration, FAP binding. How it is done:
(§1) Information on cell resources, transfection, and culture is provided in the supplemental materials. For in vitro studies, the cells were seeded in 24-well plates and cultured in a routine medium until they reached approximately 80% confluence. During the experiment, the medium was replaced with a fetal bovine serum–free medium. […] After a 60-min incubation period, the free tracer was removed using phosphate-buffered saline before measurement. The cells were lysed with 0.5 mL of 1 M NaOH, and radioactivity was subsequently gauged using a γ-counter (Wizard 2480; PerkinElmer Inc.).

In data set [2] the test system is SSTR2. The note with it: cited from earlier work. The source says: Within the domain of nuclear medicine, several targets, such as somatostatin receptor 2 (SSTR2), prostate-specific membrane antigen, and FAP, have emerged as prominent subjects of research ([7],[8]). Epstein–Barr virus latent membrane protein 1 can upregulate SSTR2 expression via the NF-κB pathway ([9]). Both FAP and SSTR2 are important markers in the biology of NPC, as evidenced by the plethora of such PET radiopharmaceuticals, including ^68Ga-FAPI for imaging cancer-associated fibroblasts and ^68Ga-DOTATATE for imaging SSTR2 ([10],[11]).

The target of data set [3] is T2, SSTR2 (Homo sapiens, UniProt P30874).
T2 construct: expressed in transfected cells
Put plainly: SSTR2 receptor binding assay on HT-1080-SSTR2 cells. The note with it: read-out: half-maximal inhibitory concentration, SSTR2 binding. As to the method: as §1

Data set [4] deals with nasopharyngeal carcinoma lesions. The note with it: human, in vivo.

T2 sequence (P30874 whole entry): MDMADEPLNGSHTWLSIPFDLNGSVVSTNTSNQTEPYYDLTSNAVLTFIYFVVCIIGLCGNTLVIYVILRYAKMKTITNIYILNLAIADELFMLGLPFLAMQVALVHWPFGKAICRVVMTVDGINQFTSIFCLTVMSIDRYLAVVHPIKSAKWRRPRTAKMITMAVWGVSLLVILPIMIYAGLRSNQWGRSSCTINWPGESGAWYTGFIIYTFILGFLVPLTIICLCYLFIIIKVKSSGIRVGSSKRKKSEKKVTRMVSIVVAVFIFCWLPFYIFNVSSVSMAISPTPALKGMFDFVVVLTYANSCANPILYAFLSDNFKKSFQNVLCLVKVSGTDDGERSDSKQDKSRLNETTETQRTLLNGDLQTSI

For `CN(CCCN1CCN(C(=O)CN2CCN(CC(=O)O)CCN(CC(=O)O)CCN(CC(=O)O)CC2)CC1)c1ccc2nccc(C(=O)NCC(=O)N3CC(F)(F)C[C@H]3C#N)c2c1` [FAPI-46, reference compound], the IC50 in data set [1] (HT-1080-FAP cells, radioligand 68Ga-FAPI-46, 60 min incubation, 8.16 × 10^−5 to 10^−13 M, n = 3) was found to be 4.39 nM.
With “p-Cl-Phe-cyclo(D-Cys-Tyr-D-4-amino-Phe(carbamoyl)-Lys-Thr-Cys)D-Tyr-NH2 (disulfide) [LM3, SSTR2 antagonist peptide]”, in data set [2], the “binding affinity to SSTR2” value is given as “high” and the internalization rate result was “low”.
Regarding `C[C@@H](O)[C@@H]1NC(=O)[C@H](CCCCN)NC(=O)[C@@H](Cc2ccc(NC(N)=O)cc2)NC(=O)[C@H](Cc2ccc(O)cc2)NC(=O)[C@H](NC(=O)[C@H](Cc2ccc(Cl)cc2)NC(=O)CN2CCN(CC(=O)O)CCN(CC(=O)O)CCN(CC(=O)O)CC2)CSSC[C@@H](C(=O)N[C@H](Cc2ccc(O)cc2)C(N)=O)NC1=O` [DOTA-LM3, reference compound] ({DOTA}-[Phe(4-Cl)][dC]Y[dPhe(4-NHCONH2)]KTC[dY]-NH2; disulfide 2-7), the IC50 in data set [3] was found to be 1.3 nM.
As to `C[C@@H](O)[C@@H]1NC(=O)[C@H](CCCCN)NC(=O)[C@@H](Cc2ccc(NC(N)=O)cc2)NC(=O)[C@H](Cc2ccc(O)cc2)NC(=O)[C@H](NC(=O)[C@H](Cc2ccc(Cl)cc2)NC(=O)[C@H](CCCCNC(=O)CN2CCN(CC(=O)O)CCN(CC(=O)O)CCN(CC(=O)O)CC2)NC(=O)CCC(=O)NCCOCCOCCOCC(=O)N2CCN(CCCN(C)c3ccc4nccc(C(=O)NCC(=O)N5CC(F)(F)C[C@H]5C#N)c4c3)CC2)CSSC[C@@H](C(=O)N[C@H](Cc2ccc(O)cc2)C(N)=O)NC1=O` [FAPI-LM3] ({X1-AEEEA-Suc}-K(DOTA)[Phe(4-Cl)][dC]Y[dPhe(4-NHCONH2)]KTC[dY]-NH2; disulfide 3-8), the IC50 in data set [1] came to 11.7 nM; in data set [3], 13.2 nM.
Turning to `OC[C@H]1OC(O)[C@H]([18F])[C@@H](O)[C@@H]1O` (stereo partly drawn) [^18F-FDG], in data set [4], the “Median SUVmax, Distant LN mets” value is 8.2 (2.0–9.0); the “Median SUVmax, Peritoneal mets” value is reported as 3.4 (1.5–8.6); the “Median SUVmax, Pleural mets” value is reported as 7.2 (3.7–12.0).
